Measured values as given in patent US20110088107A1, “COMPOSITIONS AND METHODS FOR DERIVING OR CULTURING PLURIPOTENT CELLS” (priority 2009, published 2011).

Tests used:
[1] = system: VASA, BLIMP1 and DAZL in hESCs; test: RT-PCR of early germ cell markers, hESCs; type: cell-based, human; settings: 7 days
Method: (§1) Pluripotent cells were equally divided and plated on feeders in the indicated growth medium in which these cell lines are normally maintained, and 36 hours later the wells were supplemented with the indicated inhibitors or growth factors. After seven days, wells were fixed and stained to determine the relative percentage of colonies positive for pluripotency markers. SSEA1 staining was used for mouse stem cells. Colony formation was normalized to an internal control “Growth medium” without inhibitors (first left column). Normalized percentages lower than 5% are defined as “sensitivity” to the presence of the supplemented inhibitor. (B-C) Western blot analysis of total ERK1/2, phosphorylated ERK1/2 (pERK1/2) and phosphorylated Stat3 (pStat3). WIBR3 hESC and C1 hiPSC were grown in traditional bFGF/Activin containing media while naive-hESC/hiPSCs were grown in N2B27 PD/CH/FOR/LIF. ‘2×LIF’ indicates two fold increase in LIF concentration. (D) LIF/Stat3 is required for stabilization of naive-hESC/hiPSCs. […] After 20 days, colonies positive for pluripotency markers were counted and normalized to colonies from cells electroporated with empty vector (n=3 replicates for each condition). […] Pri-WIBR3.2 cell line was analyzed after passaging in conventional bFGF/serum-containing human ESC growth conditions. Numbers indicate average percentage of XIST positive nuclei counted. […]

hESCs = test: Signaling dependence of pluripotent cell lines, conventional hESCs; type: cell-based, human; settings: normal growth medium, inhibitor or factor added
Method: Pluripotent cells were equally divided and plated on feeders in the indicated growth medium in which these cell lines are normally maintained, and 36 hours later the wells were supplemented with the indicated inhibitors or growth factors. After seven days, wells were fixed and stained to determine the relative percentage of colonies positive for pluripotency markers. SSEA1 staining was used for mouse stem cells. Colony formation was normalized to an internal control “Growth medium” without inhibitors (first left column). […] (B-C) Western blot analysis of total ERK1/2, phosphorylated ERK1/2 (pERK1/2) and phosphorylated Stat3 (pStat3). WIBR3 hESC and C1 hiPSC were grown in traditional bFGF/Activin containing media while naive-hESC/hiPSCs were grown in N2B27 PD/CH/FOR/LIF. ‘2×LIF’ indicates two fold increase in LIF concentration. […] Cells were passaged three times in the presence of puromycin. […] (E) RT-PCR expression of early germ cell markers in the presence or absence of BMP4/7/8 cytokines for 7 days. (F) Representative FISH analysis for XIST RNA (red) and Cot1 nuclear RNA (green). Pri-WIBR3.2 cell line was analyzed after passaging in conventional bFGF/serum-containing human ESC growth conditions.

[2] = system: VASA, BLIMP1 and DAZL in naive-hESCs; test: RT-PCR of early germ cell markers, naive-hESCs; type: cell-based, human; settings: 7 days
Method: as §1

mEpiSCs = test: Signaling dependence of pluripotent cell lines, mEpiSCs; type: cell-based, mouse; settings: normal growth medium, inhibitor or factor added
Method: (§2) Pluripotent cells were equally divided and plated on feeders in the indicated growth medium in which these cell lines are normally maintained, and 36 hours later the wells were supplemented with the indicated inhibitors or growth factors. After seven days, wells were fixed and stained to determine the relative percentage of colonies positive for pluripotency markers. SSEA1 staining was used for mouse stem cells. Colony formation was normalized to an internal control “Growth medium” without inhibitors (first left column). Normalized percentages lower than 5% are defined as “sensitivity” to the presence of the supplemented inhibitor. (B-C) Western blot analysis of total ERK1/2, phosphorylated ERK1/2 (pERK1/2) and phosphorylated Stat3 (pStat3). WIBR3 hESC and C1 hiPSC were grown in traditional bFGF/Activin containing media while naive-hESC/hiPSCs were grown in N2B27 PD/CH/FOR/LIF. ‘2×LIF’ indicates two fold increase in LIF concentration. (D) LIF/Stat3 is required for stabilization of naive-hESC/hiPSCs. Naïve NOD mESCs, WIBR3.5 and WIBR3.1 naive-hESC, and C1 naïve-hiPSCs were electroporated with a pBRY-CAGGS-flox-DsRedT4-IP control plasmid, a plasmid encoding a dominant negative Stat3 Y705F mutant (Stat3-DN), or a plasmid Stat3-C constitutively active mutant (pBRY-Stat3-CA). Cells were passaged three times in the presence of puromycin. After 20 days, colonies positive for pluripotency markers were counted and normalized to colonies from cells electroporated with empty vector (n=3 replicates for each condition). (E) RT-PCR expression of early germ cell markers in the presence or absence of BMP4/7/8 cytokines for 7 days. (F) Representative FISH analysis for XIST RNA (red) and Cot1 nuclear RNA (green). Pri-WIBR3.2 cell line was analyzed after passaging in conventional bFGF/serum-containing human ESC growth conditions. Numbers indicate average percentage of XIST positive nuclei counted.
(§3) Small molecules and cytokines were purchased from Tocris, Calbiochem or Sigma, and were supplemented as indicated at the following final concentration: JAK inhibitor (JAKi, 6 μM), Kenpaullone (KP, 5 μM), PD0325901 (PD, 1 μM); CHIR99021 (CH, […]), Forskolin (FK, 10 μM), FGF4-Receptor inhibitors PD173074 (0.1 μM) and SU5401 (2 μM); TGFβ/ALK inhibitors A83-01 (1 μM), RepSox (1 μM), ALK inhibitor (ALKi—SB431542, 2 μM); AICAR (0.5 mM); BixO1294 (1 μM); BayK8644 (1 μM); recombinant human BMP4 (10 ng/ml), recombinant human IL-6 (10 ng/ml), recombinant human TGFβ (500 ng/ml), Media with inhibitors was routinely replaced every 48 hours to sustain activity of compounds.

naive-hESCs/hiPSCs = test: Signaling dependence of pluripotent cell lines, naive-hESC/hiPSC; type: cell-based, human; settings: grown in PD/CH/FK/LIF, inhibitor or factor added
Method: as §2, §3

[3] = system: naive human pluripotent stem cells; test: Long-term propagation of naive human pluripotent stem cells; type: cell-based; settings: genetically unmodified forskolin-dependent naive cells
Method: Naïve human pluripotent cells were grown in serum-free N2B27 based media. 500 ml of media was generated by including: 240 ml of DMEM/F12 (Invitrogen #11320), 240 ml of Neurobasal media (Invitrogen #21103), 5 ml of N2 supplement (Invitrogen #17502048), 10 ml B27 supplement (17504044), 10 μg of recombinant human LIF (Millipore, LIF1005), 1 mM glutamine (Invitrogen), 1% nonessential amino acids (Invitrogen), 0.1 mM β-mercaptoethanol (Sigma), pen/strep (Invitrogen), 5 mg/ml bovine serum albumin (Sigma) and small molecule inhibitors as indicated. Naïve-hESCs/hiPSCs were kept on mitomycin C (MMC)-inactivated mouse embryonic fibroblast (MEF) feeder cells, unless indicated otherwise, and where passage by single cell trypsinization every 5-10 days. Throughout the manuscript, indicated passage numbers of naïve-hiPSC/hESCs indicates number of passages counted after induction of the naïve state. The C1 secondary fibroblast cells (19), harbors Doxycycline (DOX) lentiviral vectors encoding Oct4, Sox2 and Klf4 reprogramming factors (45) and a constitutively active lentivirus encoding the reverse tetracycline transactivator (19), were grown in the presence of Dox in N2B27 media supplemented with different inhibitor combinations on gelatin coated plates, until initial PSC colonies were observed and subcloned. Mouse EpiSCs were derived and propagated as previously described (3,4). […]

129 mES cells = test: Dependence of pluripotency on signaling pathways, 129 mES; type: cell-based, mouse; settings: mESM, Day 6
Method: (§4) FIG. 21 illustrates the dependence of pluripotency states on distinct signaling pathways. 129 mES or EpiSC cell samples were equally divided and plated on irradiated MEFs in the indicated growth conditions (mESM or epiESM) in which these cell lines are normally maintained, and 24 hours later the wells were supplemented with either JAKi or ALKi or were kept without any inhibitor. Representative images at Day 6 of the experiment are shown. EpiSC cells as previously described, differentiated upon introduction of ALK inhibitors, while mES cells differentiate upon blocking of Stat3 signaling by the JAK inhibitor.

129 EpiSC cells = test: Dependence of pluripotency on signaling pathways, EpiSC; type: cell-based, mouse; settings: epiESM, Day 6
Method: as §4

mESCs = test: Signaling dependence of pluripotent cell lines, mESCs; type: cell-based, mouse; settings: normal growth medium, inhibitor or factor added
Method: Pluripotent cells were equally divided and plated on feeders in the indicated growth medium in which these cell lines are normally maintained, and 36 hours later the wells were supplemented with the indicated inhibitors or growth factors. After seven days, wells were fixed and stained to determine the relative percentage of colonies positive for pluripotency markers. SSEA1 staining was used for mouse stem cells. Colony formation was normalized to an internal control “Growth medium” without inhibitors (first left column). Normalized percentages lower than 5% are defined as “sensitivity” to the presence of the supplemented inhibitor. (B-C) Western blot analysis of total ERK1/2, phosphorylated ERK1/2 (pERK1/2) and phosphorylated Stat3 (pStat3). WIBR3 hESC and C1 hiPSC were grown in traditional bFGF/Activin containing media while naive-hESC/hiPSCs were grown in N2B27 PD/CH/FOR/LIF. ‘2×LIF’ indicates two fold increase in LIF concentration. (D) LIF/Stat3 is required for stabilization of naive-hESC/hiPSCs. Naïve NOD mESCs, WIBR3.5 and WIBR3.1 naive-hESC, and C1 naïve-hiPSCs were electroporated with a pBRY-CAGGS-flox-DsRedT4-IP control plasmid, a plasmid encoding a dominant negative Stat3 Y705F mutant (Stat3-DN), or a plasmid Stat3-C constitutively active mutant (pBRY-Stat3-CA). Cells were passaged three times in the presence of puromycin. After 20 days, colonies positive for pluripotency markers were counted and normalized to colonies from cells electroporated with empty vector (n=3 replicates for each condition). (E) RT-PCR expression of early germ cell markers in the presence or absence of BMP4/7/8 cytokines for 7 days. (F) Representative FISH analysis for XIST RNA (red) and Cot1 nuclear RNA (green). Pri-WIBR3.2 cell line was analyzed after passaging in conventional bFGF/serum-containing human ESC growth conditions. Numbers indicate average percentage of XIST positive nuclei counted. […]

Compound | activation of germ cell markers VASA, BLIMP1 and DAZL in hESCs [1] | effect on pluripotency of conventional hESCs (hESCs) | activation of germ cell markers VASA, BLIMP1 and DAZL in naive-hESCs [2] | effect on pluripotency of mEpiSCs (mEpiSCs) | effect on pluripotency of naive-hESCs/hiPSCs (naive-hESCs/hiPSCs) | number of passages cells could be maintained [3] | effect on pluripotency of 129 mES cells (129 mES cells) | effect on pluripotency of EpiSC cells (129 EpiSC cells) | effect on pluripotency of mESCs (mESCs)
BMP4: recombinant human BMP4 growth factor | readily activated | resulted in the differentiation | no up-regulation | resulted in the differentiation | but not of naive-hESCs/hiPSCs or mESCs | – | – | – | –
C=C[C@@]1(C)CC(=O)[C@]2(O)[C@@]3(C)[C@@H](O)CCC(C)(C)[C@@H]3[C@H](O)[C@H](OC(C)=O)[C@@]2(C)O1 [Forskolin] | – | – | – | – | – | 15-20 passages | – | – | –
CC(C)(C)c1nc2c3cc[nH]c(=O)c3c3cc(F)ccc3c2[nH]1 [JAKi] | – | resistant | – | – | readily differentiated | – | differentiate | – | –
NC(=O)c1ccc(-c2nc(-c3ccc4c(c3)OCO4)c(-c3ccccn3)[nH]2)cc1 [ALKi] | – | rapidly differentiated | – | rapidly differentiated | maintained their pluripotent state | – | – | differentiated | maintained their pluripotent state
